Biological target: Receptor tyrosine-protein kinase erbB-2 (Homo sapiens) (UniProt P04626)
Assay: ERBB2 kinase inhibitors, dose response, biochemical, Z'-LYTE FRET, direct format, recombinant human (AID 1671289)
Conditions: Z'-LYTE FRET kinase activity

Sequence of Receptor tyrosine-protein kinase erbB-2 (Homo sapiens) (P04626 whole entry, looked up): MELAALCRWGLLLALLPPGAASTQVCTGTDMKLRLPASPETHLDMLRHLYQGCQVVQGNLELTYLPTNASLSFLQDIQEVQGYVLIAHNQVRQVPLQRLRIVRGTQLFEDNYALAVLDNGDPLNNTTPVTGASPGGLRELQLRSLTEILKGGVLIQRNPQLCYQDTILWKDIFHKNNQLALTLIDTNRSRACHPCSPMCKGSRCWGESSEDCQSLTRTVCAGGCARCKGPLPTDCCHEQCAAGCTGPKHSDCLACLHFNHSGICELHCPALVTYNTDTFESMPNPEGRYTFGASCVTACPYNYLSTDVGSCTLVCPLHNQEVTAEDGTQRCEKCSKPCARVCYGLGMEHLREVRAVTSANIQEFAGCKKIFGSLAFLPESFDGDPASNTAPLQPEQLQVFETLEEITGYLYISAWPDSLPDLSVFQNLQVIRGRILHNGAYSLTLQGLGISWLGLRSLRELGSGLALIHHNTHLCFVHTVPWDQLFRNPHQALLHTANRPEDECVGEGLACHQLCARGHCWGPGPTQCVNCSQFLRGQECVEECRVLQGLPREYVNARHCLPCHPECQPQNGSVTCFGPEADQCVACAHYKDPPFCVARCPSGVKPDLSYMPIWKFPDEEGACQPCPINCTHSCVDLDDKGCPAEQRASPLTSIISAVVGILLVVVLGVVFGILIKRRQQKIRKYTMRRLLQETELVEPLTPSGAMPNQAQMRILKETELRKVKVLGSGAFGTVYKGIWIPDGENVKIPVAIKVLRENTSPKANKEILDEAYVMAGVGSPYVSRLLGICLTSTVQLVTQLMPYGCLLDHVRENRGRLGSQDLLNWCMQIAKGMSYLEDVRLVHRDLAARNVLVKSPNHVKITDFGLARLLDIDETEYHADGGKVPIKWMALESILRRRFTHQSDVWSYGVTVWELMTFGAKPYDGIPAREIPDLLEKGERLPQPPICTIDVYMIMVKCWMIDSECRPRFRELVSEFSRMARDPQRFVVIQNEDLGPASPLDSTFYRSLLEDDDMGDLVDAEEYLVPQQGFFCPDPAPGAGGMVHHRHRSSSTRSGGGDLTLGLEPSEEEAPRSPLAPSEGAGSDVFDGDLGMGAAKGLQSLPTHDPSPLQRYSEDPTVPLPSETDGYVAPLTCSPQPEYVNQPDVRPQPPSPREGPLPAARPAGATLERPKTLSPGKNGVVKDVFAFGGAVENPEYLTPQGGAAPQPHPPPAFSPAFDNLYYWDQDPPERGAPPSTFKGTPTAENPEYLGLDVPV

- IC50: 46.5 nM
SMILES: COc1cc2ncnc(Nc3cccc(Cl)c3)c2cc1OC
